These results are taken from patent US8563576B2 (Vertex Pharmaceuticals Incorporated, priority 2008, dated 2013).

Format in all cases: biochemical
The target in experiment [1] is PKC delta kinase (Homo sapiens, UniProt Q05655). The experiment is described as follows: PKC delta kinase coupled-enzyme (NADH consumption) Ki assay. The note with it: 150 μM ATP, 46 nM PKC delta kinase, 30° C. The protocol:
(§1) An assay buffer solution was prepared which consisted of 100 mM HEPES (pH 7.5), 10 mM MgCl2, 25 mM NaCl, 0.1 mM EDTA and 0.01% Brij. […] To 16 μL of this enzyme buffer, in a 384 well plate, was added 1 μL of VRT stock solution in DMSO. The mixture was allowed to equilibrate for 10 mins at 30° C. The enzyme reaction was initiated by the addition of 16 μL stock ATP solution prepared in assay buffer to a final assay concentration of 150 μM. Initial rate data was determined from the rate of change of absorbance at 340 nm (corresponding to stoichiometric consumption of NADH) using a Molecular Devices Spectramax plate reader (Sunnyvale, Calif.) over 15 mins at 30° C. […] Ki values were calculated from initial rate data by non-linear regression using the Prism software package (Prism 4.0a, Graphpad Software, San Diego, Calif.).

The target of experiment [2] is PKC alpha kinase (Homo sapiens, UniProt P17252). The experiment is described as follows: PKC alpha kinase coupled-enzyme (NADH consumption) Ki assay. The following applies: 130 μM ATP, 4.5 nM PKC alpha kinase, 30° C. On the procedure:
as §1, with “EDTA, 100 μM CaCl2” for “EDTA”, “130” for “150”

Experiment [3] deals with PKC theta kinase (Homo sapiens, UniProt Q04759). The experiment is described as follows: PKC theta kinase coupled-enzyme (NADH consumption) Ki assay. The following applies: 240 μM ATP, 18 nM PKC theta kinase, 30° C. The protocol: as §1, with “l An” for “An”, “To 60” for “To 16”, “added 2” for “added 1”, “of 5” for “of 16”, “of 240” for “of 150”
Chain of PKC theta kinase (Q04759 whole entry): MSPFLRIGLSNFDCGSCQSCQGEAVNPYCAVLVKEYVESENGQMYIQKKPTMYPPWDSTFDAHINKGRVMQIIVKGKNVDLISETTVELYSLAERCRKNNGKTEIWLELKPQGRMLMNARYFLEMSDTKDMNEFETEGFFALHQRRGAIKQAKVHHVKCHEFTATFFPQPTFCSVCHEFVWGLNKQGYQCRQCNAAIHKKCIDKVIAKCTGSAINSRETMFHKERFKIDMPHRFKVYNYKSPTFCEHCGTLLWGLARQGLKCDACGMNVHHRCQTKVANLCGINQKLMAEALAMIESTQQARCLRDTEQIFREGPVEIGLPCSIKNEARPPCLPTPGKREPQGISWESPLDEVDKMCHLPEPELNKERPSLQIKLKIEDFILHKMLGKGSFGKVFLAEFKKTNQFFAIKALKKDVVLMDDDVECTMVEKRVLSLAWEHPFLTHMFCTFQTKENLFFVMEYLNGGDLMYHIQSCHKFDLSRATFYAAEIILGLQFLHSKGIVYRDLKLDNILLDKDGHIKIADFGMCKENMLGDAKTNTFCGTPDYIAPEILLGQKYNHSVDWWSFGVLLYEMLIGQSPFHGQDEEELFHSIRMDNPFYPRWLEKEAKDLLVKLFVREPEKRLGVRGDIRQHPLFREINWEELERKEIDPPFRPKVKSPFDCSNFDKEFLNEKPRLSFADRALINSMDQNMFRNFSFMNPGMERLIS

Chain of PKC delta kinase (Q05655 whole entry): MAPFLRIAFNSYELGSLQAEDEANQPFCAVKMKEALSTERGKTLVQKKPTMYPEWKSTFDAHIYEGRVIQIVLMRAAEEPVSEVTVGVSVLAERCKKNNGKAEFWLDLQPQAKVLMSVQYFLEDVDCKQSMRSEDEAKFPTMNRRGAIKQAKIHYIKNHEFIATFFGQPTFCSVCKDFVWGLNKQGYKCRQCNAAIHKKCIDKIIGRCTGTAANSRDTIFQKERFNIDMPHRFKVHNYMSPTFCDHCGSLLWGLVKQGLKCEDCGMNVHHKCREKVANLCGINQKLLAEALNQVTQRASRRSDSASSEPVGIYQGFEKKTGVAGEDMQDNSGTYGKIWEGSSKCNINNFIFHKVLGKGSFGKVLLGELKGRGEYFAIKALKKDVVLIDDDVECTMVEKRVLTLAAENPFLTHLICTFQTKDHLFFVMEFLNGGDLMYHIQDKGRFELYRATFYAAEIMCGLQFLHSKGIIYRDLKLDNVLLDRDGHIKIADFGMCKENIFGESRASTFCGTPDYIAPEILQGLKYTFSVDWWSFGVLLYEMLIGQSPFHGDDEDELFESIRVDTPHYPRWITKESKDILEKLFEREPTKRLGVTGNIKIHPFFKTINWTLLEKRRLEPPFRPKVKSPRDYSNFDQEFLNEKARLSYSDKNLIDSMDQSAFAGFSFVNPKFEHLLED

As for `CC(C)C[C@H]1CN(c2cn(C)c(-c3n[nH]c4ncccc34)n2)CCN1` [Compound 6, 3-(4-((S)-3-isobutylpiperazin-1-yl)-1-methyl-1H-imidazol-2-yl)-1H-pyrazolo[3,4-b]pyridine], the Ki in experiment [1] is greater than 2000 nM; in experiment [2], greater than 1250 nM; in experiment [3] it was greater than 700 nM.
The like results for `Cc1cn(C2CCNCC2)nc1-c1n[nH]c2ncccc12` [Compound 5, 3-(4-methyl-1-(piperidin-4-yl)-1H-pyrazol-3-yl)-1H-pyrazolo[3,4-b]pyridine] were, in that order, greater than 2000 nM, greater than 1250 nM and greater than 700 nM.
For the molecule `Cc1sc(N2CCCNCC2)nc1-c1n[nH]c2ncccc12` [Compound 1], the Ki in experiment [3] is greater than 2800 nM.
On to `CC(C)C[C@H]1CN(c2csc(-c3n[nH]c4ncccc34)n2)CCN1` [Compound 3, (S)-4-(3-isobutylpiperazin-1-yl)-2-(1H-pyrazolo[3,4-b]pyridin-3-yl)thiazole], for which the Ki in experiment [1] is less than 2800 nM; in experiment [2], greater than 1250 nM; in experiment [3], less than 50 nM.
Regarding `Cc1sc(N2CCN[C@@H](CC(C)C)C2)nc1-c1n[nH]c2ncccc12` [Compound 2], the Ki is greater than 2000 nM in experiment [1], greater than 1250 nM in experiment [2] and less than 500 nM in experiment [3].
Consider `c1cnc2[nH]nc(-c3nn(C4CCNCC4)c4ccccc34)c2c1` [Compound 4, 3-(1-(piperidin-4-yl)-1H-indazol-3-yl)-1H-pyrazolo[3,4-b]pyridine], for which the Ki is less than 2800 nM in experiment [1], greater than 1250 nM in experiment [2] and less than 500 nM in experiment [3].
